Assay results from ChEMBL document CHEMBL5154882, “Discovery of 4-Hydroxyquinazoline Derivatives as Small Molecular BET/PARP1 Inhibitors That Induce Defective Homologous Recombination and Lead to Synthetic Lethality for Triple-Negative Breast Cancer Therapy” (J Med Chem, 2022).
Calls of active or inactive are those of the source. The calls are words filed in the database; no cut-off is given here.

Experiments:
MDA-MB-231 [1] = test: Antitumor activity against human MDA-MB-231 cells xenografted in BALB/c nude mouse assessed as tumor growth inhibition at 80 mg/kg incubated for 30 to 40 mins by Ki-67 staining based immunohistochemical analysis; assay type: functional, organism-based; settings: time 30-40 min
MDA-MB-231 [2] = test: Antitumor activity against human MDA-MB-231 cells xenografted in BALB/c nude mouse assessed as reduction in CtIp expression at 80 mg/kg incubated for 30 to 40 mins by immunohistochemical analysis; assay type: functional, organism-based; settings: time 30-40 min
MDA-MB-231 [3] = test: Antiproliferative activity against human MDA-MB-231 cells assessed as reduction in cell viability incubated for 72 hrs by MTT assay; assay type: functional, cell-based; settings: MDA-MB-231, 72 h
MDA-MB-468 [4] = test: Antiproliferative activity against human MDA-MB-468 cells assessed as reduction in cell viability incubated for 72 hrs by MTT assay; assay type: functional, cell-based; settings: MDA-MB-468, 72 h
[5] = biological target: Bromodomain-containing protein 4 (Homo sapiens, UniProt O60885); test: Inhibition of BRD4 (unknown origin) at 1 uM relative to control
[6] = biological target: T1, Poly [ADP-ribose] polymerase 1 (Homo sapiens, UniProt P09874); test: Inhibition of PARP1 (unknown origin) at 1 uM relative to control
[7] = biological target: T1, Poly [ADP-ribose] polymerase 1; test: Inhibition of PARP1 (unknown origin) using NAD+ as substrate incubated for 60 mins by ELISA
MDA-MB-468 [8] = test: Antitumor activity against human MDA-MB-468 cells xenografted in BALB/c nude mouse model assessed as tumor growth inhibition at 80 mg/kg, ig administered daily for 16 days measured every 3 days relative to control; assay type: functional; settings: MDA-MB-468, po, 384 h, time 16 day, read-out: TGI
[9] = Toxicity in BALB/c nude mouse xenografted with human MDA-MB-468 cells assessed as change in body weight at 40 to 80 mg/kg, ig administered daily for 16 days measured every 3 days; assay type: organism-based; settings: in vivo, po, 384 h, dose 40-80 mg/kg, time 16 day
[10] = Toxicity in BALB/c nude mouse xenografted with human MDA-MB-468 cells assessed as change in body weight at 80 mg/kg, ig administered daily for 16 days measured every 3 days; assay type: organism-based; settings: in vivo, po, 384 h, time 16 day
[11] = Toxicity in BALB/c nude mouse xenografted with human MDA-MB-468 cells assessed as death at 40 to 80 mg/kg, ig administered daily for 16 days measured every 3 days; assay type: organism-based; settings: in vivo, po, 384 h, dose 40-80 mg/kg, time 16 day
[12] = Toxicity in BALB/c nude mouse xenografted with human MDA-MB-468 cells assessed as death at 80 mg/kg, ig administered daily for 16 days measured every 3 days; assay type: organism-based; settings: in vivo, po, 384 h, time 16 day
[13] = Toxicity in BALB/c nude mouse xenografted with human MDA-MB-468 cells assessed as morphological changes in heart at 80 mg/kg, ig administered daily for 16 days measured every 3 days by hematoxyin-eosin staining based analysis; assay type: organism-based; settings: in vivo, po, 384 h, time 16 day
[14] = Toxicity in BALB/c nude mouse xenografted with human MDA-MB-468 cells assessed as morphological changes in heart at 40 to 80 mg/kg, ig administered daily for 16 days measured every 3 days by hematoxyin-eosin staining based analysis; assay type: organism-based; settings: in vivo, po, 384 h, dose 40-80 mg/kg, time 16 day
[15] = Toxicity in BALB/c nude mouse xenografted with human MDA-MB-468 cells assessed as morphological changes in liver at 80 mg/kg, ig administered daily for 16 days measured every 3 days by hematoxyin-eosin staining based analysis; assay type: organism-based; settings: in vivo, po, 384 h, time 16 day
[16] = Toxicity in BALB/c nude mouse xenografted with human MDA-MB-468 cells assessed as morphological changes in liver at 40 to 80 mg/kg, ig administered daily for 16 days measured every 3 days by hematoxyin-eosin staining based analysis; assay type: organism-based; settings: in vivo, po, 384 h, dose 40-80 mg/kg, time 16 day
[17] = Toxicity in BALB/c nude mouse xenografted with human MDA-MB-468 cells assessed as morphological changes in spleen at 80 mg/kg, ig administered daily for 16 days measured every 3 days by hematoxyin-eosin staining based analysis; assay type: organism-based; settings: in vivo, po, 384 h, time 16 day
[18] = Toxicity in BALB/c nude mouse xenografted with human MDA-MB-468 cells assessed as morphological changes in spleen at 40 to 80 mg/kg, ig administered daily for 16 days measured every 3 days by hematoxyin-eosin staining based analysis; assay type: organism-based; settings: in vivo, po, 384 h, dose 40-80 mg/kg, time 16 day
[19] = Toxicity in BALB/c nude mouse xenografted with human MDA-MB-468 cells assessed as morphological changes in lung at 80 mg/kg, ig administered daily for 16 days measured every 3 days by hematoxyin-eosin staining based analysis; assay type: organism-based; settings: in vivo, po, 384 h, time 16 day
[20] = Toxicity in BALB/c nude mouse xenografted with human MDA-MB-468 cells assessed as morphological changes in lung at 40 to 80 mg/kg, ig administered daily for 16 days measured every 3 days by hematoxyin-eosin staining based analysis; assay type: organism-based; settings: in vivo, po, 384 h, dose 40-80 mg/kg, time 16 day
[21] = Toxicity in BALB/c nude mouse xenografted with human MDA-MB-468 cells assessed as morphological changes in kidney at 80 mg/kg, ig administered daily for 16 days measured every 3 days by hematoxyin-eosin staining based analysis; assay type: organism-based; settings: in vivo, po, 384 h, time 16 day
[22] = Toxicity in BALB/c nude mouse xenografted with human MDA-MB-468 cells assessed as morphological changes in kidney at 40 to 80 mg/kg, ig administered daily for 16 days measured every 3 days by hematoxyin-eosin staining based analysis; assay type: organism-based; settings: in vivo, po, 384 h, dose 40-80 mg/kg, time 16 day
MDA-MB-231 [23] = test: Antitumor activity against human MDA-MB-231 cells xenografted in BALB/c nude mouse assessed as reduction in c-Myc expression at 80 mg/kg incubated for 30 to 40 mins by immunohistochemical analysis; assay type: functional, organism-based; settings: time 30-40 min
MDA-MB-231 [24] = test: Antitumor activity against human MDA-MB-231 cells xenografted in BALB/c nude mouse assessed as reduction in PAR expression at 80 mg/kg incubated for 30 to 40 mins by immunohistochemical analysis; assay type: functional, organism-based; settings: time 30-40 min
MDA-MB-231 [25] = test: Antitumor activity against human MDA-MB-231 cells xenografted in BALB/c nude mouse assessed as reduction in Rad51 expression at 80 mg/kg incubated for 30 to 40 mins by immunohistochemical analysis; assay type: functional, organism-based; settings: time 30-40 min
MDA-MB-231 [26] = test: Antitumor activity against human MDA-MB-231 cells xenografted in BALB/c nude mouse assessed as downregulation of CtIP at 80 mg/kg by Western blot analysis; assay type: functional, organism-based
MDA-MB-231 [27] = test: Antitumor activity against human MDA-MB-231 cells xenografted in BALB/c nude mouse assessed as downregulation of c-Myc at 80 mg/kg by Western blot analysis; assay type: functional, organism-based
MDA-MB-231 [28] = test: Antitumor activity against human MDA-MB-231 cells xenografted in BALB/c nude mouse assessed as downregulation of PAR at 80 mg/kg by Western blot analysis; assay type: functional, organism-based
MDA-MB-231 [29] = test: Antitumor activity against human MDA-MB-231 cells xenografted in BALB/c nude mouse assessed as downregulation of Rad51 at 80 mg/kg by Western blot analysis; assay type: functional, organism-based
MDA-MB-468 [30] = test: Cell cycle arrest in human MDA-MB-468 cells assessed as accumulation at G0/G1 phase incubated for 72 hrs in presence of olaparib by propidium iodide staining-based flow cytometry analysis (reference value: 61.4%); assay type: functional
MDA-MB-468 [31] = test: Cell cycle arrest in human MDA-MB-468 cells assessed as accumulation at S phase incubated for 72 hrs in presence of olaparib by propidium iodide staining-based flow cytometry analysis (reference value: 21.1%); assay type: functional
MDA-MB-468 [32] = test: Cell cycle arrest in human MDA-MB-468 cells assessed as accumulation at S phase incubated for 72 hrs in presence of olaparib by propidium iodide staining-based flow cytometry analysis (Rvb=16.1%); assay type: functional
MDA-MB-468 [33] = test: Induction of apoptosis in human MDA-MB-468 cells assessed as early apoptotic cells at 1 uM incubated for 72 hrs in presence of olaparib by annexin V/propidium iodide staining-based flow cytometry analysis (reference value: 4.07%); assay type: functional
MDA-MB-468 [34] = test: Induction of apoptosis in human MDA-MB-468 cells assessed as late apoptotic cells at 1 uM incubated for 72 hrs in presence of olaparib by annexin V/propidium iodide staining-based flow cytometry analysis (reference value: 1.34%); assay type: functional
MDA-MB-468 [35] = test: Induction of apoptosis in human MDA-MB-468 cells assessed as downregulation of Bcl-2 protein level incubated for 72 hrs in presence of olaparib by Western blot analysis; assay type: functional, cell-based
MDA-MB-468 [36] = test: Induction of apoptosis in human MDA-MB-468 cells assessed as up-regulation of Bax protein level at incubated for 72 hrs in presence of olaparib by Western blot analysis; assay type: functional, cell-based
MDA-MB-468 [37] = test: Induction of apoptosis in human MDA-MB-468 cells assessed as up-regulation of cleaved caspase 3 protein level incubated for 72 hrs in presence of olaparib by Western blot analysis; assay type: functional, cell-based
MDA-MB-468 [38] = test: Induction of DNA damage in human MDA-MB-468 cells assessed as up-regulation of gammaH2AX expression level at 1 uM incubated for 60 mins by DAPI staining based immunofluorescence assay; assay type: functional, cell-based
MDA-MB-468 [39] = test: Induction of DNA damage in human MDA-MB-468 cells assessed as up-regulation of gammaH2AX expression level at 1 uM in presence of olaparib by DAPI staining based immunofluorescence assay; assay type: functional, cell-based
MDA-MB-231 [40] = test: Induction of DNA damage in human MDA-MB-231 cells assessed as increase in tail DNA measured at 1 uM after 3 days by comet assay; assay type: functional, cell-based; settings: time 3.0 day
MDA-MB-231 [41] = test: Induction of DNA damage in human MDA-MB-231 cells assessed as increase in tail DNA at 1 uM measured after 3 days in presence of olaparib by comet assay; assay type: functional, cell-based; settings: time 3.0 day
MDA-MB-468 [42] = test: Synergistic antiproliferative activity against human MDA-MB-468 cells at compound to Olaparib ratio of 1:3; assay type: functional, cell-based
MDA-MB-468 [43] = test: Induction of DNA damage in human MDA-MB-468 cells assessed as up-regulation of gammaH2AX expression level at 3 uM by DAPI staining based immunofluorescence assay; assay type: functional, cell-based
MDA-MB-231 [44] = test: Induction of DNA damage in human MDA-MB-231 cells assessed as increase in tail DNA measured at 3 uM after 3 days by comet assay; assay type: functional, cell-based; settings: time 3.0 day

T1 sequence (P09874 whole entry): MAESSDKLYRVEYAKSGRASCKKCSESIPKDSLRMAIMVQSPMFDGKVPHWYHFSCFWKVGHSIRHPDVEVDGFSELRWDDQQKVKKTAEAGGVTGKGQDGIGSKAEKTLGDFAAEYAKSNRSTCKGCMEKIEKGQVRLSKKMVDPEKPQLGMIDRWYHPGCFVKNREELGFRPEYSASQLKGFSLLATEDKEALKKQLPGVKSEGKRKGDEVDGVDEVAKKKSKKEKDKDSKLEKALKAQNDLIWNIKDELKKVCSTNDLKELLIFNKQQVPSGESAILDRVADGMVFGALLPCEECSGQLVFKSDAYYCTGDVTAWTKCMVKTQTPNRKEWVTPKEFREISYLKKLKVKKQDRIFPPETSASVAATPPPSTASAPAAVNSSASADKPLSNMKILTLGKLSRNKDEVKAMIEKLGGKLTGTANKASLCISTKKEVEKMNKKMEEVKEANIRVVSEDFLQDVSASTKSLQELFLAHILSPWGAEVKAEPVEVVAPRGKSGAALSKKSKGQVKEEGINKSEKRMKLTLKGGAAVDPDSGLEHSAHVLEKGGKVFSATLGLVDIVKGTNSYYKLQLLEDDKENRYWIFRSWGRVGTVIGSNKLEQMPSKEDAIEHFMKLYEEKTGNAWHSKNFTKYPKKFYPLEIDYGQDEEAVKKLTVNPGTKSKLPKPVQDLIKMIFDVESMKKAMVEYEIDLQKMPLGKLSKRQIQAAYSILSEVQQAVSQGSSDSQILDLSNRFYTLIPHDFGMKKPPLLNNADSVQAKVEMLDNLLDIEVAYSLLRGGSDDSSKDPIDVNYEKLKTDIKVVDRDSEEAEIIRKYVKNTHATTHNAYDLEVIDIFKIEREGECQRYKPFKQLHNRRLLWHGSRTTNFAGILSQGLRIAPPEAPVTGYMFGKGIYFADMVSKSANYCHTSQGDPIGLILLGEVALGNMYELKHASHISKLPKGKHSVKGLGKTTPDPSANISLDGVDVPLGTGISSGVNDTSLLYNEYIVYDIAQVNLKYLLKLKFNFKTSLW

Structure (SMILES): COc1cc(OC)c2c(=O)[nH]c(-c3cc(C)c(OCCOc4ccccc4C(N)=O)c(C)c3)nc2c1
- Activity (MDA-MB-231 [1]): Active
- Activity (MDA-MB-231 [2]): Active
- IC50 (MDA-MB-231 [3]): 15.6 µM
- IC50 (MDA-MB-468 [4]): 6.42 µM
- inhibition [5]: 66.2%
- inhibition [6]: 35.9%
- IC50 [7]: 0.0046 µM
- inhibition in vivo at 80 mg/kg (MDA-MB-468 [8]): 62.5%
- Activity [9]: Non-Toxic
- Activity [10]: Non-Toxic
- Activity [11]: Non-Toxic
- Activity [12]: Non-Toxic
- Activity [13]: Non-Toxic
- Activity [14]: Non-Toxic
- Activity [15]: Non-Toxic
- Activity [16]: Non-Toxic
- Activity [17]: Non-Toxic
- Activity [18]: Non-Toxic
- Activity [19]: Non-Toxic
- Activity [20]: Non-Toxic
- Activity [21]: Non-Toxic
- Activity [22]: Non-Toxic
- Activity (MDA-MB-231 [23]): Active
- Activity (MDA-MB-231 [24]): Active
- Activity (MDA-MB-231 [25]): Active
- Activity (MDA-MB-231 [26]): Active
- Activity (MDA-MB-231 [27]): Active
- Activity (MDA-MB-231 [28]): Active
- Activity (MDA-MB-231 [29]): Active

Structure (SMILES): Cc1sc2c(c1C)C(c1ccc(Cl)cc1)=NC(CC(=O)OC(C)(C)C)c1nnc(C)n1-2 (configuration not stated)
- Activity (MDA-MB-468 [30]): 58.9%
- Activity (MDA-MB-468 [31]): 27.9%
- Activity (MDA-MB-468 [32]): 12.8%
- Activity (MDA-MB-468 [33]): 30.72%
- Activity (MDA-MB-468 [34]): 7.3%
- Activity (MDA-MB-468 [35]): Active
- Activity (MDA-MB-468 [36]): Active
- Activity (MDA-MB-468 [37]): Active
- Activity (MDA-MB-468 [38]): Active
- Activity (MDA-MB-468 [39]): Active
- Activity (MDA-MB-231 [40]): Active
- Activity (MDA-MB-231 [41]): Active
- Activity (MDA-MB-468 [42]): Active

Structure (SMILES): O=C(c1cc(Cc2n[nH]c(=O)c3ccccc23)ccc1F)N1CCN(C(=O)C2CC2)CC1
- Activity (MDA-MB-468 [43]): Active
- Activity (MDA-MB-231 [44]): Active

Structure (SMILES): Cc1cc(-c2nc3cccc(C)c3c(=O)[nH]2)ccc1Cc1n[nH]c(=O)c2ccccc12
- IC50 (MDA-MB-231 [3]): > 40 µM
- IC50 (MDA-MB-468 [4]): 29.6 µM
- inhibition [5]: 36.8%
- inhibition [6]: 47.6%

Structure (SMILES): O=c1[nH]nc(Cc2cccc(-c3nc4cccc(Cl)c4c(=O)[nH]3)c2)c2ccccc12
- IC50 (MDA-MB-231 [3]): 11 µM
- IC50 (MDA-MB-468 [4]): 7.3 µM
- inhibition [5]: 64.8%
- inhibition [6]: 75.3%
